From US20260053812A1, “METHODS OF TREATING HYPERTENSION WITH A COMBINATION OF AN ALDOSTERONE SYNTHASE INHIBITOR AND A DIURETIC” (Mineralys Therapeutics, Inc., priority 2022, published 2026)
Marks after values point to notes of the source that are not given here.

What was measured:
Type in all cases: in vivo, human
Serum sodium = settings: active treatment cohorts, Parts 1 and 2
ACTH stimulation testing = settings: majority of Part 2 subjects, 100 mg QD, Baseline and after 8 weeks
Method: 11-deoxycorticosterone levels were unaffected. […] Due to supply chain disruption, the ability to perform ACTH stimulation testing was limited during the first part of the trial. However, the majority of subjects in Part 2 dosed with 100 mg QD, the maximum dose tested, had ACTH-stimulation testing performed at Baseline and after 8 weeks of treatment.

Serum potassium = assay: Serum potassium
Text: (§1) Safety endpoints of this study are: • (a) Incidence and severity of all spontaneously reported adverse events (AEs) • (b) Changes in vital signs (standing SBP, standing DBP, body temperature, heart rate, and respiratory rate) • (c) Changes in electrocardiogram parameters (including cardiac intervals: PR, QRS, QT, and corrected QT interval using Fridericia's formula) • (d) Changes in clinical laboratory assessments (hematology, chemistry, coagulation, and urinalysis) • (e) Change in office-measured SBP from Study Week 8 (end-of-treatment period to end of follow up (i.e. end of Study Week 12 for Part 1 and end of Study 10 for Part 2).
The Safety Analysis Set includes all enrolled subjects who received at least one dose of study treatment (MLS-101 or placebo). In analyses performed on the Safety Analysis Set, subjects will be analyzed according to their actual treatment received.

[1] = Clinical laboratory evaluations, vital signs, physical examination, ECG
Text: as §1

[2] = active treatment cohorts compared with placebo, Parts 1 and 2

Structure (SMILES): CC(=O)N[C@H]1CC[C@H](NC(=O)CN2CCN(c3nncc(-c4ccc(C)cc4)n3)CC2)CC1 [Compound A HBr]
- Serum sodium levels (Serum sodium): decreased
- ACTH-stimulation results (ACTH stimulation testing): no individuals with abnormal ACTH-stimulation results
- Increase in potassium levels relative to baseline (Serum potassium; 25 mg BID Part 1, Week 8): 0.341 mmol/L
- Serum K+ Mean Change from Baseline to Wk 8 (Serum potassium; 50 mg QD (n = 28)): +0.25 mmol/L
- Serum K+ Mean Change from Baseline to Wk 8 (Serum potassium; 100 mg QD (n = 61)): +0.29 mmol/L
- Increase in potassium levels relative to baseline (Serum potassium; 100 mg QD Part 2, Week 8): 0.208 mmol/L
- Number of individuals with verified or multiple increased serum K+ 5.2-5.5 mMol/L during treatment (Serum potassium; 100 mg QD, Part 1): 5
- Number of individuals with verified or multiple increased serum K+ 5.6-6.0 mMol/L during treatment (Serum potassium; 100 mg QD, Part 1): 3
- Number of individuals with verified or multiple increased serum K+ 6.1-6.5 mMol/L during treatment (Serum potassium; 100 mg QD, Part 1): 0
- Percent of individuals with increased serum K+ 5.2-5.5 mMol/L (Serum potassium; 100 mg QD, Part 1): (18.5%)
- Percent of individuals with increased serum K+ 5.6-6.0 mMol/L (Serum potassium; 100 mg QD, Part 1): (10.7%)
- Number of individuals with increased serum K+ >6.5 mMol/L during treatment (Serum potassium; 100 mg QD, Part 1, isolated incident not verified by repeat measurement): 1*
- Number of individuals with verified or multiple increased serum K+ 5.2-5.5 mMol/L during treatment (Serum potassium; 100 mg QD, Part 2): 1
- Number of individuals with verified or multiple increased serum K+ 5.6-6.0 mMol/L during treatment (Serum potassium; 100 mg QD, Part 2): 0
- Number of individuals with verified or multiple increased serum K+ 6.1-6.5 mMol/L during treatment (Serum potassium; 100 mg QD, Part 2): 0
- Number of individuals with verified or multiple increased serum K+ >6.5 mMol/L during treatment (Serum potassium; 100 mg QD, Part 2): 0
- Percent of individuals with increased serum K+ 5.2-5.5 mMol/L (Serum potassium; 100 mg QD, Part 2): (4%)
- Number of individuals with verified or multiple increased serum K+ 5.2-5.5 mMol/L during treatment (Serum potassium; 100 mg QD, Pooled): 6
- Number of individuals with verified or multiple increased serum K+ 5.6-6.0 mMol/L during treatment (Serum potassium; 100 mg QD, Pooled): 3
- Number of individuals with verified or multiple increased serum K+ 6.1-6.5 mMol/L during treatment (Serum potassium; 100 mg QD, Pooled): 0
- Number of individuals with verified or multiple increased serum K+ >6.5 mMol/L during treatment (Serum potassium; 100 mg QD, Pooled): 0
- Percent of individuals with increased serum K+ 5.2-5.5 mMol/L (Serum potassium; 100 mg QD, Pooled): (10.3%)
- Percent of individuals with increased serum K+ 5.6-6.0 mMol/L (Serum potassium; 100 mg QD, Pooled): (5.2%)
- Change in group mean serum potassium (K+), Mean (Serum potassium; Part 1, N 26*): +0.50 mMol/L
- Change in group mean serum potassium (K+) (Serum potassium; Part 1, N 26* (dose not given in Table 5)): +0.50 mMol/L
- Change in group mean serum potassium (K+), Mean (Serum potassium; Part 2, N 31): +0.23 mMol/L
- Change in group mean serum potassium (K+) (Serum potassium; Part 2, N 31 (dose not given in Table 5)): +0.23 mMol/L
- Change in group mean serum potassium (K+), Mean (Serum potassium; Pooled, N 57): +0.35 mMol/L
- Change in group mean serum potassium (K+) (Serum potassium; Pooled, N 57 (dose not given in Table 5)): +0.35 mMol/L
- Serum potassium levels (Serum potassium; [2]): increased
- Episodes of severe hyperkalemia (Serum potassium; pooled (Part 1 and Part 2) 100 mg QD safety set (n=60)): no episodes of severe hyperkalemia
- Subjects with transient elevated serum potassium greater than 6.0 mmol/L (Serum potassium; whole study, none an SAE, all resolved after discontinuation or dose adjustment, listed as lorundrostat): seven
- Clinical chemistry, hematology, coagulation, urinalysis changes from baseline to Week 8 ([1]; Part 1 or Part 2): no meaningful changes
- Vital signs, physical examination, ECG parameters ([1]; Parts 1 and 2): no notable findings
- Serum creatinine levels [1, 2]: increased
